Each block holds one compound with its values, some of them ahead of it.
Assays:
[1] = stability in organic solvents and under fermentation condition (HPLC, 1H NMR); type: physicochemical; settings: in CHCl3, DMSO, MeOH, and MeOH-H2O at 25° C. for 90 days
Method: (§1) To verify the identity of the shunt metabolites, purified 4 (30 mg) was incubated in H2O-DMSO (9:1), and the resultant products were isolated and subjected to spectroscopic analysis.
Seed medium (50 mL) in a 250-mL flask was inoculated with spores of S. platensis and incubated on a rotary shaker at 250 rpm and 28° C. for 30 hr. The resultant seed culture (25 mL) was then inoculated into production medium (600 mL containing 70 g/L XAD-16 resins) in a 2-L flask, which was incubated on a rotary shaker at 250 rpm and 28° C. for 2 days. The combined production culture broth (7 L) was filtered through gauze sponges to capture the XAD-16 resins. The resins were washed with Milli-Q H2O, dried at room temperature, and eluted with anhydrous ethanol. The ethanol extract was evaporated under reduced pressure to yield an oily residue. The residue was first analyzed by HPLC-UV (PDA) and LC-ESI-MS to confirm the presence of the various congeners of 110. Although they can survive during fermentation and be stabilized in H2O upon absorption to resins, 110 and its congeners 112-119 undergo rapid rearrangement in aqueous solution. They are stable in most organic solvents such as CHCl3, EtOAc, hexane, and absolute ethanol at room temperature. Consequently, isolation of these metabolites was performed mainly by repeated silica gel flash column chromatography using two different solvent systems (CHCl3/MeOH and EtOAc/hexane).

[2] = system: K-ras transformed NIH/3T3 mouse fibroblasts; settings: 0.4 ∝g/ml; cited from earlier work
experimental tumors = settings: efficacy comparable to or better than MTM C; cited from earlier work
HCT-116 cells = settings: same assay conditions for both substances; cited from earlier work
[3] = stability in water / H2O-mediated rearrangement (HPLC); type: physicochemical
Method: as §1
Large-scale Conversion of 4 to 1, 2, 3 and 5 in H2O. The purity of compound 4 was first analyzed by HPLC showing a single peak (purity >98%) and then confirmed by ^1H NMR spectrum (in CDCl3) showing no detectable contaminant. A solution of 4 (30 mg in 6 ml of DMSO) was then added to 55 ml Milli-Q H2O, and the resultant mixture was incubated at 37° C. for 2 hours. The reaction mixture was evaporated under high vacuo. The residue was subjected to silica gel flash column chromatography eluted with CHCl3-MeOH (from 10:0 to 9.4:0.6) to yield pure 1 (8 mg), 3 (9 mg), and a mixture of 2 and 5. The latter was further resolved by semi-preparative to afford pure 2 (6 mg) and 5 (4 mg). The ESI−MS, ^1H NMR and optical rotation data of compounds 1, 2, 3, and 5 were identical to those obtained from the corresponding compounds isolated from fermentation (the ^13C NMR spectrum of 1 was also measured, which is identical to that of 1 obtained from fermentation).
H2O-mediated rearrangement of 112-114 and 117-119. […]
Regioselective 1,4-reduction to access the reduced NK30424 scaffold. […] The reactions for 203, 209, and 210 were complete in 2, 8, and 12 hrs, respectively, as monitored by HPLC (yields>80%). […]

SMILES: CO[C@@H](/C=C/CC/C=C/C(=O)O)[C@@H](O)[C@H](C)[C@@H](O)/C(C)=C/[C@H](C)C(=O)CCCC1CC(=O)NC(=O)C1 [Compound 3, Dorrigocin B]
change of solutions upon HPLC and 1H NMR analyses [1]: no detectable change

SMILES: CO[C@@H](/C=C/CC/C=C/C(=O)O)[C@@H](O)[C@H](C)/C=C(\C)[C@H](O)[C@H](C)C(=O)CCCC1CC(=O)NC(=O)C1 [Compound 2, Dorrigocin A]
reduction of the number of foci [2]: 74%
change of solutions upon HPLC and 1H NMR analyses [1]: no detectable change

SMILES: CO[C@H]1/C=C/CC/C=C/C(=O)O[C@H]([C@H](C)C(=O)CCCC2CC(=O)NC(=O)C2)/C(C)=C\[C@@H](C)[C@@H]1O [Compound 1, Migrastatin]
change of solutions upon HPLC and 1H NMR analyses [1]: no detectable change

SMILES: CO[C@@H](/C=C/CC/C=C/C(=O)O)[C@@H](O)[C@H](C)/C=C(\C)[C@@H](O)[C@H](C)C(=O)CCCC1CC(=O)NC(=O)C1 [Compound 5, 13-epi-Dorrigocin A]
change of solutions upon HPLC and 1H NMR analyses [1]: no detectable change

SMILES: C/C(=C\[C@H](C)C(=O)C[C@H](O)CC1CC(=O)NC(=O)C1)[C@@H]1OC(=O)/C=C/CC/C=C/C=C\[C@@H]1C [Compound 104, lactimidomycin]
survival time of tumor-bearing mice (experimental tumors): prolonged the survival time
IC50 value with HCT-116 cells (HCT-116 cells): 0.0014 µg/mL

SMILES: CO[C@@]12[C@H](COC(N)=O)C3=C(C(=O)C(C)=C(N)C3=O)N1C[C@@H]1N[C@@H]12 [MTM C]
IC50 value with HCT-116 cells (HCT-116 cells): 0.8 µg/mL

stability in aqueous solution (H2O-mediated rearrangement) [3]: rapid conversion
SMILES: CO[C@H]1/C=C/CC/C=C/C(=O)O[C@@H](/C(C)=C/[C@H](C)C(=O)CCCC2CC(=O)NC(=O)C2)[C@@H](C)[C@@H]1O [Compound 4, iso-Migrastatin]
